US20240016784A1, “Y BOX BINDING PROTEIN 1 INHIBITORS” (Oregon Health & Science University, priority 2020, published 2024)

Experiments:
[1] = tested on: ID-8 tumor xenograft; test: ID8 syngeneic ovarian tumor model, tumor growth and lung metastasis; format: in vivo, C57BL/6 mice
Description: These promising results led us to test SU093 and SU056 in vivo. C57BL/6 mice were implanted with 2×10^6 firefly luciferase (luc+)-expressing ID-8 syngeneic ovarian cancer cells subcutaneously. Once the tumors reached 100 mm^3 in size, we began daily intraperitoneal treatment with SU093 and SU056 at 20 mg/kg (vehicle control 30% PEG-300 in saline). Tumor growth was monitored via bioluminescence imaging (IVIS).
Due to prior observation of a significant reduction in the migratory ability of OC cells treated with the two drugs (FIG. 1H), we also measured the effect of drug treatment on ovarian cancer metastases. At the end of above experiment, lungs were fixed and metastatic foci were counted under the dissecting microscope followed by H&E staining.
In vivo xenograft model and drug efficacy study: All animal experiments were reviewed and approved by the Animal Care and Use Committee of Stanford University, CA, USA. Luciferase tagged ID8 (2×10^6) or OVCAR8 (5×10^6) cells were implanted into the right flank of 6-7-week-old female C57BL/6 mice and NOD/SCID mice, respectively. Respective treatment began after tumors grew to 100-200 mm^3 diameters. The ID8 syngeneic mice model was treated with a vehicle (30% PEG-300 in saline), 20 mg/kg SU093, and 20 mg/kg SU056 intraperitoneally (IP) daily for 42 days. At the end of treatment, blood was collected from each mouse and analyzed for liver toxicity parameters, including Alanine Aminotransferase (ALT), Aspartate Aminotransferase (AST), and Alkaline Phosphatase (ALKP). OVCAR8 xenograft mice model was treated with vehicle (30% PEG-300 in saline), 5 mg/kg paclitaxel (once a week), 10 mg/kg SU056 (daily), a combination of paclitaxel (5 mg/kg, once a week) and SU056 (10 mg/kg, daily) for 4 weeks. Mice from both studies were euthanized, the tumor and different organs were collected and fixed in neutral buffered formalin and further processed for immunohistochemical analysis.
FIGS. 2A-2F. SU093 and SU056 inhibit mice ovarian ID-8 tumor xenograft growth in C57BL/6 mice. Mice were subcutaneously injected with ID-8 cells mixed with Matrigel in 1:1 ratio and the drug treatment started when tumors reached 100 mm^3. […] FIG. 2B) Tumor volume/mouse as a function of time. […] FIG. 2C) Tumor weight/mouse at the end of the study. […] FIG. 2D) Liver toxicity parameters at the end of 42 days showing no significant difference between control, SU093, and SU056. FIGS. 2E-2F) Lung metastasis assay. FIG. 2E) H&E staining of the lung (red arrow indicates the metastasis from ID8 xenograft). Scale bar, 250 μm. FIG. 2F) No. of lung metastatic nodules.

[2] = biological target: T1, CALM3 (Homo sapiens, UniProt P0DP25); test: Cellular Thermal Shift Assay (CETSA) in OVCAR8 cells; format: binding; settings: SU056 2.5 μM, 1.5 h, read-out: increase in thermal stability (Tm shift) of CALM3
T1 construct: endogenous in cells; host or cells: OVCAR8
Description: (§1) The cellular thermal shift assay (CETSA) is based on the principle of protein-ligand interactions causing a shift in protein thermal stability (Savitski et al., 2014). When a protein interacts with ligand, its thermal stability increases, and this principle allows identification of which protein targets that are engaged by small molecules or drug candidates. We used this assay to identify protein targets of SU056. OVCAR8 cells were treated with SU056 (2.5 μM) for 1.5 h, and protein lysates were analyzed for a thermal shift. The heat maps represent the thermal stability of 804 soluble proteins in the presence and absence of SU056 compare with 37° C. (FIG. 3A).
(§2) Cellular Thermal Shift Assay (CETSA): The assay was performed as previously described (Savitski et al., 2014). Briefly, OVCAR8 cells were treated with vehicle (DMSO) or SU056 (2.5 μM) at 70-80% confluency for 1.5 h. Cells were harvested and washed with 1×PBS twice. Cells were pelleted and resuspended in PBS. 10 different PCR tubes with 1×10^6 cells/tube (in 100 μL PBS) were prepared for both the groups. Tubes were exposed to respective temperatures (37, 41, 44, 47, 50, 53, 56, 59, 63, 67° C.) for 3 min using a thermal cycler (Bio-Rad, CA, USA) followed by 2 min incubation at room temperature.

[3] = biological target: T2, PSMB2 (Homo sapiens, UniProt P49721); test: as above; format: binding; settings: SU056 2.5 μM, 1.5 h, read-out: increase in thermal stability (Tm shift) of PSMB2
T2 construct: endogenous in cells; host or cells: OVCAR8
Description: as §1, §2

[4] = biological target: T3, SUMO2 (Homo sapiens, UniProt P61956); test: as above; format: binding; settings: SU056 2.5 μM, 1.5 h, read-out: increase in thermal stability (Tm shift) of SUMO2
T3 construct: endogenous in cells; host or cells: OVCAR8
T3 sequence (P61956 1-93 limits assumed): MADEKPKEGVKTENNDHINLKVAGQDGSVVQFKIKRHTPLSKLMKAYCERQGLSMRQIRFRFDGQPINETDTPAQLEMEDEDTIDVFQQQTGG
Description: as §1, §2

[5] = biological target: T4, TMSB10 (Homo sapiens, UniProt P63313); test: as above; format: binding; settings: SU056 2.5 μM, 1.5 h, read-out: increase in thermal stability (Tm shift) of TMSB10
T4 construct: endogenous in cells; host or cells: OVCAR8
T4 sequence (P63313 whole entry): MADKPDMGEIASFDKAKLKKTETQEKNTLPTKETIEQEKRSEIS
Description: as §1, §2

[6] = Liver microsomes metabolic profiling; format: in vitro ADME
From the text: FIGS. 15A-15E. […] SU056 treatment at increasing concentrations dose not challenge the dietary behavior as reflected by change in body weight FIG. 15A) Mice and FIG. 15B) Rat. […] Liver microsomes were used for the purpose of metabolic profiling.

## O=C1OCC2=C1C(c1cccc(F)c1)c1cc3c(cc1N2CCO)OCO3 (centres unmarked) [SU056, 9-(3-fluorophenyl)-5-(2-hydroxyethyl)-6,9-dihydro-[1,3]dioxolo[4,5-g]furo[3,4-b]quinolin-8(5H)-one]
[1]; 20 mg/kg daily IP, 42 days, histological scoring
  reduction in lung metastases: 3 fold
[1]; 20 mg/kg daily IP, at 42 days
  reduction in tumor weight: 2 fold
[1]; 20 mg/kg daily intraperitoneal, bioluminescence imaging
  tumor progression vs vehicle control: significantly delay the tumor progression
[2]
  ΔTm at 2.5 µM: 4.03 ± 1.07 °C
[3]
  ΔTm at 2.5 µM: 5.36 ± 0.76 °C
[4]
  ΔTm at 2.5 µM: 5.4 ± 1.08 °C
[5]
  ΔTm at 2.5 µM: 5.89 ± 1.18 °C
[6]
  half-life: 40 min
